target: T1, bromodomain BRD4 (44-168), BRD4 (333-460), and BRD4 (1-477 or 44-460) (Homo sapiens, UniProt O60885); assay: Time Resolved Fluorescence Resonance Energy Transfer (TR-FRET) binding assay; conditions: one of the FRET assays described
T1 construct: BRD4(44-168), BRD4(333-460), BRD4(44-460), BRD4(1-477), O60885-1; fused on or other part: N-terminal BirA biotinylation motif, biotinylated; The TVMV-cleavable His6 tag is removed, except in some BRD4(44-460) runs detected with anti-His terbium cryptate

| Structure (SMILES) | IC50 [nM] |
| --- | --- |
| Cc1noc(C)c1-c1cc(C(N)=O)c2c(c1)[nH]c1ccc(N3CCCOC3=O)cc12 [Example 150, 2-(3,5-dimethyl-4-isoxazolyl)-6-(2-oxo-1,3-oxazinan-3-yl)-9H-carbazole-4-carboxamide] | < 500 |
| Cc1noc(C)c1-c1cc(C(N)=O)c2c3cc(N4CCCOC4=O)ccc3n(Cc3ccc(F)cc3)c2c1 [Example 151, 2-(3,5-dimethyl-4-isoxazolyl)-9-(4-fluorobenzyl)-6-(2-oxo-1,3-oxazinan-3-yl)-9H-carbazole-4-carboxamide] | < 50 |
| Cc1noc(C)c1-c1cc(C(N)=O)c2c3cc(N4CCOC4=O)ccc3n(Cc3ccc(F)cc3)c2c1 [Example 152, 2-(3,5-dimethyl-4-isoxazolyl)-9-(4-fluorobenzyl)-6-(2-oxo-1,3-oxazolidin-3-yl)-9H-carbazole-4-carboxamide] | < 50 |
| Cc1noc(C)c1-c1cc(C(N)=O)c2c3cc(N4CC(C)(C)COC4=O)ccc3n(Cc3ccc(F)cc3)c2c1 [Example 153, 2-(3,5-dimethyl-4-isoxazolyl)-6-(5,5-dimethyl-2-oxo-1,3-oxazinan-3-yl)-9-(4-fluorobenzyl)-9H-carbazole-4-carboxamide] | < 50 |
| CCNC(=O)c1cc(-c2c(C)noc2C)cc2[nH]c3ccc(N4CCCOC4=O)cc3c12 [Example 154, 2-(3,5-dimethyl-4-isoxazolyl)-N-ethyl-6-(2-oxo-1,3-oxazinan-3-yl)-9H-carbazole-4-carboxamide] | < 7500 |
| CCNC(=O)c1cc(-c2c(C)noc2C)cc2c1c1cc(N3CCCOC3=O)ccc1n2Cc1ccc(F)cc1 [Example 155, 2-(3,5-dimethyl-4-isoxazolyl)-N-ethyl-9-(4-fluorobenzyl)-6-(2-oxo-1,3-oxazinan-3-yl)-9H-carbazole-4-carboxamide] | < 7500 |
| Cc1noc(C)c1-c1cc(C(N)=O)c2c3cc(N4CCCOC4=O)ccc3n(Cc3ccccc3)c2c1 [Example 156, 9-benzyl-2-(3,5-dimethyl-4-isoxazolyl)-6-(2-oxo-1,3-oxazinan-3-yl)-9H-carbazole-4-carboxamide] | < 50 |
| Cc1noc(C)c1-c1cc(C(N)=O)c2c3cc(N4CCCOC4=O)ccc3n(Cc3ccc(Cl)cc3)c2c1 [Example 157, 9-(4-chlorobenzyl)-2-(3,5-dimethyl-4-isoxazolyl)-6-(2-oxo-1,3-oxazinan-3-yl)-9H-carbazole-4-carboxamide] | < 50 |
| Cc1noc(C)c1-c1cc(C(N)=O)c2c3cc(N4CCCOC4=O)ccc3n(C(C)c3ccccc3)c2c1 (centres unmarked) [Example 158, 2-(3,5-dimethyl-4-isoxazolyl)-6-(2-oxo-1,3-oxazinan-3-yl)-9-(1-phenylethyl)-9H-carbazole-4-carboxamide] | < 50 |
| Cc1noc(C)c1-c1cc(C(N)=O)c2c3cc(N4CCCOC4=O)ccc3n(Cc3cc(F)ccc3F)c2c1 [Example 159, 9-(2,5-difluorobenzyl)-2-(3,5-dimethyl-4-isoxazolyl)-6-(2-oxo-1,3-oxazinan-3-yl)-9H-carbazole-4-carboxamide] | < 50 |
| Cc1noc(C)c1-c1cc(C(N)=O)c2c3cc(N4CC(C)(C)COC4=O)ccc3n(Cc3ccccc3)c2c1 [Example 160, 9-benzyl-2-(3,5-dimethyl-4-isoxazolyl)-6-(5,5-dimethyl-2-oxo-1,3-oxazinan-3-yl)-9H-carbazole-4-carboxamide] | < 50 |
| Cc1noc(C)c1-c1cc(C(N)=O)c2c3cc(N4CCOC4=O)ccc3n(Cc3ccccc3)c2c1 [Example 161, 9-benzyl-2-(3,5-dimethyl-4-isoxazolyl)-6-(2-oxo-1,3-oxazolidin-3-yl)-9H-carbazole-4-carboxamide] | < 50 |
| Cc1noc(C)c1-c1cc(C(N)=O)c2c3cc(N4CCOC4=O)ccc3n(Cc3ccc(Cl)cc3)c2c1 [Example 162, 9-(4-chlorobenzyl)-2-(3,5-dimethyl-4-isoxazolyl)-6-(2-oxo-1,3-oxazolidin-3-yl)-9H-carbazole-4-carboxamide] | < 50 |
| Cc1noc(C)c1-c1cc(C(N)=O)c2c3cc(N4CCOC4=O)ccc3n(C(C)c3ccccc3)c2c1 (centres unmarked) [Example 163, 2-(3,5-dimethyl-4-isoxazolyl)-6-(2-oxo-1,3-oxazolidin-3-yl)-9-(1-phenylethyl)-9H-carbazole-4-carboxamide] | < 50 |
| Cc1noc(C)c1-c1cc(C(N)=O)c2c3cc(N4CCOC4=O)ccc3n(Cc3ccc(Cl)c(F)c3)c2c1 [Example 164, 9-(4-chloro-3-fluorobenzyl)-2-(3,5-dimethyl-4-isoxazolyl)-6-(2-oxo-1,3-oxazolidin-3-yl)-9H-carbazole-4-carboxamide] | < 500 |

Further lines, results first:

| IC50 [nM] | Structure (SMILES) |
| --- | --- |
| < 50 | CNc1ccc2c(c1)c1c(C(N)=O)cc(-c3c(C)noc3C)cc1n2Cc1ccccc1 [Example 130, 9-Benzyl-2-(3,5-dimethyl-4-isoxazolyl)-6-(methylamino)-9H-carbazole-4-carboxamide] |
| < 50 | CC(=O)N(C)c1ccc2c(c1)c1c(C(N)=O)cc(-c3c(C)noc3C)cc1n2Cc1ccccc1 [Example 131, 9-benzyl-2-(3,5-dimethylisoxazol-4-yl)-6-(N-methylacetamido)-9H-carbazole-4-carboxamide] |
| < 50 | CNC(=O)c1cc(-c2c(C)noc2C)cc2c1c1cc(N(C)C(C)=O)ccc1n2Cc1ccccc1 [Example 132, 6-(acetyl(methyl)amino)-9-benzyl-2-(3,5-dimethyl-4-isoxazolyl)-N-methyl-9H-carbazole-4-carboxamide] |
| < 50 | CNC(=O)c1cc(-c2c(C)noc2C)cc2c1c1cc(NC)ccc1n2Cc1ccccc1 [Example 133, 9-benzyl-2-(3,5-dimethyl-4-isoxazolyl)-N-methyl-6-(methylamino)-9H-carbazole-4-carboxamide] |
| < 50 | CC(=O)N(CCF)c1ccc2c(c1)c1c(C(N)=O)cc(-c3c(C)noc3C)cc1n2Cc1ccccc1 [Example 134, 6-(acetyl(2-fluoroethyl)amino)-9-benzyl-2-(3,5-dimethyl-4-isoxazolyl)-9H-carbazole-4-carboxamide] |
| < 50 | Cc1noc(C)c1-c1cc(C(N)=O)c2c3cc(N)ccc3n(Cc3ccccc3)c2c1 [Example 135, 6-amino-9-benzyl-2-(3,5-dimethyl-4-isoxazolyl)-9H-carbazole-4-carboxamide] |
| < 50 | Cc1noc(C)c1-c1cc(C(N)=O)c2c3cc(NCCF)ccc3n(Cc3ccccc3)c2c1 [Example 136, 9-benzyl-2-(3,5-dimethyl-4-isoxazolyl)-6-(2-fluoroethylamino)-9H-carbazole-4-carboxamide] |
| < 50 | Cc1noc(C)c1-c1cc(C(N)=O)c2c3cc(NCCO)ccc3n(Cc3ccccc3)c2c1 [Example 137, 9-benzyl-2-(3,5-dimethyl-4-isoxazolyl)-6-((2-hydroxyethyl)amino)-9H-carbazole-4-carboxamide] |
| < 50 | Cc1noc(C)c1-c1cc(C(N)=O)c2c3cc(NCC#N)ccc3n(Cc3ccccc3)c2c1 [Example 138, 9-benzyl-6-((cyanomethyl)amino)-2-(3,5-dimethyl-4-isoxazolyl)-9H-carbazole-4-carboxamide] |
| < 50 | Cc1noc(C)c1-c1cc(C(N)=O)c2c3cc(NCC(F)F)ccc3n(Cc3ccccc3)c2c1 [Example 139, 9-benzyl-6-((2,2-difluoroethyl)amino)-2-(3,5-dimethyl-4-isoxazolyl)-9H-carbazole-4-carboxamide] |
| < 50 | Cc1noc(C)c1-c1cc(C(N)=O)c2c3cc(N(CCO)CCO)ccc3n(Cc3ccccc3)c2c1 [Example 140, 9-benzyl-6-(bis(2-hydroxyethyl)amino)-2-(3,5-dimethyl-4-isoxazolyl)-9H-carbazole-4-carboxamide] |
| < 50 | CNC(=O)c1cc(-c2c(C)noc2C)cc2c1c1cc(N(C)C)ccc1n2Cc1ccccc1 [Example 141, 9-benzyl-6-(dimethylamino)-2-(3,5-dimethyl-4-isoxazolyl)-N-methyl-9H-carbazole-4-carboxamide] |
| < 50 | CC(=O)Nc1ccc2c(c1)c1c(C(N)=O)cc(-c3c(C)noc3C)cc1n2Cc1ccccc1 [Example 142, 6-acetamido-9-benzyl-2-(3,5-dimethyl-4-isoxazolyl)-9H-carbazole-4-carboxamide] |
| < 50 | Cc1noc(C)c1-c1cc(C(N)=O)c2c3cc(NS(C)(=O)=O)ccc3n(Cc3ccccc3)c2c1 [Example 143, 9-benzyl-2-(3,5-dimethyl-4-isoxazolyl)-6-(methylsulfonamido)-9H-carbazole-4-carboxamide] |
| < 50 | COC(=O)Nc1ccc2c(c1)c1c(C(N)=O)cc(-c3c(C)noc3C)cc1n2Cc1ccccc1 [Example 144, methyl (9-benzyl-5-carbamoyl-7-(3,5-dimethyl-4-isoxazolyl)-9H-carbazol-3-yl)carbamate] |
| < 50 | Cc1noc(C)c1-c1cc(C(N)=O)c2c3cc(NC(=O)C4CCOCC4)ccc3n(Cc3ccccc3)c2c1 [Example 145, 9-benzyl-2-(3,5-dimethyl-4-isoxazolyl)-6-((tetrahydro-2H-pyran-4-ylcarbonyl)amino)-9H-carbazole-4-carboxamide] |
| < 50 | Cc1noc(C)c1-c1cc(C(N)=O)c2c3cc(NC(=O)N4CCOCC4)ccc3n(Cc3ccccc3)c2c1 [Example 146, 9-benzyl-2-(3,5-dimethyl-4-isoxazolyl)-6-((4-morpholinylcarbonyl)amino)-9H-carbazole-4-carboxamide] |
| < 50 | Cc1noc(C)c1-c1cc(C(N)=O)c2c3cc(NC(=O)N(C)C)ccc3n(Cc3ccccc3)c2c1 [Example 147, 9-benzyl-6-((dimethylcarbamoyl)amino)-2-(3,5-dimethyl-4-isoxazolyl)-9H-carbazole-4-carboxamide] |
| < 50 | CNC(=O)Nc1ccc2c(c1)c1c(C(N)=O)cc(-c3c(C)noc3C)cc1n2Cc1ccccc1 [Example 148, 9-benzyl-2-(3,5-dimethyl-4-isoxazolyl)-6-((methylcarbamoyl)amino)-9H-carbazole-4-carboxamide] |
| < 50 | Cc1noc(C)c1-c1cc(C(N)=O)c2c3cc(NC(=O)C4CCCC4)ccc3n(Cc3ccccc3)c2c1 [Example 149, 9-benzyl-6-((cyclopentylcarbonyl)amino)-2-(3,5-dimethyl-4-isoxazolyl)-9H-carbazole-4-carboxamide] |

Source: patent US9492460B2, “Carbazole compounds useful as bromodomain inhibitors” (Bristol-Myers Squibb Company, priority 2013, dated 2016)
